The results in this text go back to ChEMBL document CHEMBL5291721, “A preclinical secondary pharmacology resource illuminates target-adverse drug reaction associations of marketed drugs” (Nat Commun, 2023).

The target in assay [1] is Cannabinoid receptor 1 (Homo sapiens, UniProt P21554).
Assay [2] has as its target T1, 5-hydroxytryptamine receptor 2C (Homo sapiens, UniProt P28335).
T1 sequence (P28335 whole entry): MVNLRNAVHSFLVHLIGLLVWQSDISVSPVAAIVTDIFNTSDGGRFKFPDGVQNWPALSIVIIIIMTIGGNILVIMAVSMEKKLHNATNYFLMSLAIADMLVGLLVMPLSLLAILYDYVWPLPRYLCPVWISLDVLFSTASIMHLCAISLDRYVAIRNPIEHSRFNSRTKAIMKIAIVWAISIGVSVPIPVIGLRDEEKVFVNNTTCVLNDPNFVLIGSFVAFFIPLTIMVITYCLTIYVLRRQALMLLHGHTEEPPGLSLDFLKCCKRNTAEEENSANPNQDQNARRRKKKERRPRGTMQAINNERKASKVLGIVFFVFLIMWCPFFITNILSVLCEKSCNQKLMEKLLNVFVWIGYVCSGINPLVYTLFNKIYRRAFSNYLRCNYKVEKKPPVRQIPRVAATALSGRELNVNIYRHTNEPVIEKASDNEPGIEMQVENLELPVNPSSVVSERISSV

Assay [3] has as its target Gamma-aminobutyric acid receptor subunit alpha-1 (Rattus norvegicus, UniProt P62813). It is filed as functional.
The target in assay [4] is T2, Alpha-2C adrenergic receptor (Homo sapiens, UniProt P18825).
T2 sequence (P18825 whole entry): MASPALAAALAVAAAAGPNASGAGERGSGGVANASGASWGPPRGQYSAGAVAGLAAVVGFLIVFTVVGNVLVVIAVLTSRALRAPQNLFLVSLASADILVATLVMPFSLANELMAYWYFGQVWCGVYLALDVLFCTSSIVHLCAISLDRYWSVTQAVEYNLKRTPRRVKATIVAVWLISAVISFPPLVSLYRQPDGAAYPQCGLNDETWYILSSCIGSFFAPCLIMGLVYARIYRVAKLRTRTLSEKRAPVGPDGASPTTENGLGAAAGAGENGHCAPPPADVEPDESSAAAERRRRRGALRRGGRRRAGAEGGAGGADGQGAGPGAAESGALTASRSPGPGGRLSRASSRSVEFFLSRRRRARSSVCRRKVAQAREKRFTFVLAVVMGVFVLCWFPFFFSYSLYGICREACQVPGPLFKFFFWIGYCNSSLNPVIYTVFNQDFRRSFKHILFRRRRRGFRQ
The assay is classed as functional.

Assay [5] addresses Histamine H2 receptor (Homo sapiens, UniProt P25021). It is filed as functional, cell-based.
Assay [6] addresses Neuronal acetylcholine receptor subunit alpha-4 (Homo sapiens, UniProt P43681).
Assay [7] addresses Delta-type opioid receptor (Homo sapiens, UniProt P41143).
For assay [8], the target named is T3, Adenosine receptor A1 (Homo sapiens, UniProt P30542).
T3 sequence (P30542 whole entry): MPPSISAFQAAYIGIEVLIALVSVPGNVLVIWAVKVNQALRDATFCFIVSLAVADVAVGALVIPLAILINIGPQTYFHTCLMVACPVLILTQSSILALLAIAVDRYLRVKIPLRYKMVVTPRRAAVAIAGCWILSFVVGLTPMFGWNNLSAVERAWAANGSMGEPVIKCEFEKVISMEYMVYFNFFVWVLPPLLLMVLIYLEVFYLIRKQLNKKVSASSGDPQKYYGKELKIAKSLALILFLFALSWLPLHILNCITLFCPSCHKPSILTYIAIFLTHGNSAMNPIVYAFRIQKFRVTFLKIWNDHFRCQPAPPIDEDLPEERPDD

Assay [9] addresses Vasopressin V1a receptor (Homo sapiens, UniProt P37288).
The target of assay [10] is Mu-type opioid receptor (Homo sapiens, UniProt P35372).
Assay [11] addresses T4, Alpha-1A adrenergic receptor (Homo sapiens, UniProt P35348).
T4 sequence (P35348 whole entry): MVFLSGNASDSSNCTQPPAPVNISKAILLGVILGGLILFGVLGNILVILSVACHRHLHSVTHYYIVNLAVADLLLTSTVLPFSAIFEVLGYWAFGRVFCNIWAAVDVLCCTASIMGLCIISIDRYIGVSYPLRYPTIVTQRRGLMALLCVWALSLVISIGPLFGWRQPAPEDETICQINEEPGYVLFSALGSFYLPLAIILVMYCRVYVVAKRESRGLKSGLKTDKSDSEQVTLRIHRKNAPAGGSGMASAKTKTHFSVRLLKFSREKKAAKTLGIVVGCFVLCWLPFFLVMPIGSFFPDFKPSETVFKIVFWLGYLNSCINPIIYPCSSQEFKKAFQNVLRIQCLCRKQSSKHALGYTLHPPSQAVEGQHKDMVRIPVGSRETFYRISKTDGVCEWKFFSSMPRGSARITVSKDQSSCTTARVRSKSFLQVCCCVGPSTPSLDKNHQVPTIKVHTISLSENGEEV
It is filed as functional, cell-based.
Also: assay procedure not described here.

Sequence of Histamine H2 receptor (P25021 whole entry): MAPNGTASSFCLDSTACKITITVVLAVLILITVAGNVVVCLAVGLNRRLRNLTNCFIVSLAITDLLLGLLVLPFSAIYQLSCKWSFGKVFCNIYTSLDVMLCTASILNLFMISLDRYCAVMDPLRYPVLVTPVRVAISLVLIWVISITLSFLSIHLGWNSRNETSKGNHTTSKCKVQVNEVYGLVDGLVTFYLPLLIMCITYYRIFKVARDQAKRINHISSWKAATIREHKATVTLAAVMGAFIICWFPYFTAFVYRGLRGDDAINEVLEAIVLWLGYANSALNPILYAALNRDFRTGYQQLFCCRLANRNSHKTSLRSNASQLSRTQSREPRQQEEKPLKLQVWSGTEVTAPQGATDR
Sequence of Neuronal acetylcholine receptor subunit alpha-4 (P43681 whole entry): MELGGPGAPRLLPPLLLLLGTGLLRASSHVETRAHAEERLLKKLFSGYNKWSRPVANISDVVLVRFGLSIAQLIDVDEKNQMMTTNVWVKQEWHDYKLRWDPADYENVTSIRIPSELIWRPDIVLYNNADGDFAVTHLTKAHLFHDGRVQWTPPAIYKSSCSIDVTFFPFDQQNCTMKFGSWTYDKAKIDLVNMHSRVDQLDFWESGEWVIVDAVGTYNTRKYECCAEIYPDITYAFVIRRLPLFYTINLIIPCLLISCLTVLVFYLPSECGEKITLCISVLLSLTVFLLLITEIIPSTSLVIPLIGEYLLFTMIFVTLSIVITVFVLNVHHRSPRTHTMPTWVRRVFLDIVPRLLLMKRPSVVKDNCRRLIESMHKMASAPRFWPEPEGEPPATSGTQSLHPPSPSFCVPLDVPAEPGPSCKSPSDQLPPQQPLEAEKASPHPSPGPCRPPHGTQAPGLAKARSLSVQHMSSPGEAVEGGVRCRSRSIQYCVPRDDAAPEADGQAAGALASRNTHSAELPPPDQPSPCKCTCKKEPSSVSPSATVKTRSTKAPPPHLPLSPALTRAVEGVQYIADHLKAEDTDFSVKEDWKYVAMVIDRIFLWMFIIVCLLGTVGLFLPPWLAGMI
Sequence of Vasopressin V1a receptor (P37288 whole entry): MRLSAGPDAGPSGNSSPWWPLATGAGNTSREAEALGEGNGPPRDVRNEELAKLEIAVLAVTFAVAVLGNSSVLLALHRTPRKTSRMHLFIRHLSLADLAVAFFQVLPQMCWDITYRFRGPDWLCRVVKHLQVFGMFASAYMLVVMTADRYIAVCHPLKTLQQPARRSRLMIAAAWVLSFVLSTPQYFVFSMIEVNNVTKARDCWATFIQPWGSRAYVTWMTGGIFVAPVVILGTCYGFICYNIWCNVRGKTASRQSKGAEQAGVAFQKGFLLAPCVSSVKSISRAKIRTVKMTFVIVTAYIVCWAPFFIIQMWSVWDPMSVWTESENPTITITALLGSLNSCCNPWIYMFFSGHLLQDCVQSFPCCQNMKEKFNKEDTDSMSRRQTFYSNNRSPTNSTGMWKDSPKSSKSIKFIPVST
Sequence of Delta-type opioid receptor (P41143 whole entry): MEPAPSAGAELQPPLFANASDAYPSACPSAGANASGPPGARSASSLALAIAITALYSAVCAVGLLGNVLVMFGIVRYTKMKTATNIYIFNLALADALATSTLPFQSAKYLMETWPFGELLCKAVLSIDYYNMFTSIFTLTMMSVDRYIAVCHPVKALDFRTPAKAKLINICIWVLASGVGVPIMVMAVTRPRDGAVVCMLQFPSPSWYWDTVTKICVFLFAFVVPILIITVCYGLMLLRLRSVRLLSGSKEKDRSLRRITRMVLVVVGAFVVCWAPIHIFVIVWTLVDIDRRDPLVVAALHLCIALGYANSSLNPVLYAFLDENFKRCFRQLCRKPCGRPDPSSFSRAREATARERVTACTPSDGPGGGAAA
Sequence of Gamma-aminobutyric acid receptor subunit alpha-1 (P62813 whole entry): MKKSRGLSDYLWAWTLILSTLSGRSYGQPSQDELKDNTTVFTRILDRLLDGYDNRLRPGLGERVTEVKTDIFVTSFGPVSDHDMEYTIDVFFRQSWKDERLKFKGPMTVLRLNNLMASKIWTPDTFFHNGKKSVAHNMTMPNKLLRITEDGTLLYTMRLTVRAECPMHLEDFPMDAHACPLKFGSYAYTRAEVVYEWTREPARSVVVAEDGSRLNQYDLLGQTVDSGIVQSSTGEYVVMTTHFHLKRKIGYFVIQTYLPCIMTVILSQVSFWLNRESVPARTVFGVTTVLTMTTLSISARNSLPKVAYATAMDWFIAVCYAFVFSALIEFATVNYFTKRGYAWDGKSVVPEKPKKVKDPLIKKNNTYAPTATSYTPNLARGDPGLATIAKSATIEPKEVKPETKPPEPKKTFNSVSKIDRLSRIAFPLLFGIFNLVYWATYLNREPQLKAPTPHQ
Sequence of Mu-type opioid receptor (P35372 whole entry): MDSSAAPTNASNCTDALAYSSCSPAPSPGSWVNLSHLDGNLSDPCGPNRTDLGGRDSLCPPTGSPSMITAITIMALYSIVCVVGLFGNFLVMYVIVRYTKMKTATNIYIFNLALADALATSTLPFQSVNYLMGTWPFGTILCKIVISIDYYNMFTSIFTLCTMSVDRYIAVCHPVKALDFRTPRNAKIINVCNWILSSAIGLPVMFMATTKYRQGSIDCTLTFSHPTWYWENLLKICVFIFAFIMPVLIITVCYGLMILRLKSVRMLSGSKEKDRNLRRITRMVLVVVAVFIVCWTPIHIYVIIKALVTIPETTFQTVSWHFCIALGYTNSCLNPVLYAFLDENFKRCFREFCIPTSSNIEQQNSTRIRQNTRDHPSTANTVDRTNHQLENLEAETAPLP
Sequence of Cannabinoid receptor 1 (P21554 whole entry): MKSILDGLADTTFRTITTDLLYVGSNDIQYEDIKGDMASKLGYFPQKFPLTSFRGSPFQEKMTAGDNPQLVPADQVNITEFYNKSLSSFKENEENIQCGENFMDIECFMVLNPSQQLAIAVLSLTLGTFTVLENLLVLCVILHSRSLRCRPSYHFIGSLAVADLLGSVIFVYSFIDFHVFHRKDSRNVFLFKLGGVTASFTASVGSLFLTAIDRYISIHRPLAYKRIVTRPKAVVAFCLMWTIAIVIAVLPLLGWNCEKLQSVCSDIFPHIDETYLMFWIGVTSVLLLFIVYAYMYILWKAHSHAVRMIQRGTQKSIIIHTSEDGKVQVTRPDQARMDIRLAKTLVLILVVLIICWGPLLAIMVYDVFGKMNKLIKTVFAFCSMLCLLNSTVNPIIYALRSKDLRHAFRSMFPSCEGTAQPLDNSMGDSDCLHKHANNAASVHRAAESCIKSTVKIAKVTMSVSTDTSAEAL

The AC50 is the midpoint of the concentration-response curve, whichever way the signal moves. The low end stands for greater potency, the high end for weaker potency. `CCCCCCNC(=O)n1cc(F)c(=O)[nH]c1=O` [CARMOFUR]: the AC50 in [1], in [2], in assay [3], in assay [4], in assay [5] and in assay [6] was over 30 µM in each case. Further, the AC50 in [7] and in assay [8] was over 30 µM in each case.
With `COc1cccc2c1C(=O)c1c(O)c3c(c(O)c1C2=O)C[C@@](O)(C(C)=O)C[C@@H]3O[C@H]1C[C@H](N)[C@H](O)[C@H](C)O1` [DAUNORUBICIN], the AC50 in assay [2] was 14.1 µM; in assay [9] it was 3.6 µM; in assay [3], over 30 µM; in assay [4] it was 17.5 µM; in [5], over 30 µM; in [6] it was 10.8 µM. The AC50 in assay [7] was 16.2 µM; in assay [8] it was over 30 µM; in [10], 24 µM.
For the compound `Clc1ccc(C(Cn2ccnc2)OCc2ccc(Sc3ccccc3)cc2)c(Cl)c1` (configuration not stated) [FENTICONAZOLE], the AC50 in [1] is 11 µM; in assay [2], over 30 µM; in [9] it was over 30 µM; in assay [3], over 30 µM; in [4], over 30 µM; in [11] it was over 30 µM. Besides, the AC50 was over 30 µM in assay [5], over 10 µM in assay [6], over 30 µM in [7] and over 30 µM in assay [8].
As for `CC(C)OC(=O)C(C(=O)OC(C)C)=C1SC=CS1` [MALOTILATE], the AC50 was over 30 µM in [2]; over 30 µM in assay [9]; 15 µM in assay [3]; over 30 µM in [4]; 28 µM in [11]; over 30 µM in assay [5]. The AC50 in assay [6], in [7] and in assay [8] was over 30 µM in each case.
In the case of `CN(c1nccc(=O)[nH]1)C1CCN(c2nc3ccccc3n2Cc2ccc(F)cc2)CC1` [MIZOLASTINE], the AC50 in [2] is over 10 µM; in assay [9] it was over 30 µM; in assay [3], over 30 µM; in assay [4], over 30 µM; in [11], over 30 µM; in [5] it was over 30 µM. The AC50 in assay [6], in assay [7] and in assay [8] was over 30 µM throughout.
For the compound `CC(=O)c1ccc2c(c1)N(CCCN1CCC(CCO)CC1)c1ccccc1S2` [PIPERACETAZINE], the AC50 is 11 µM in [2]; over 30 µM in assay [9]; over 30 µM in [3]; 0.37 µM in assay [4]; 0.14 µM in [11]; over 30 µM in assay [5]. In addition, the AC50 in assay [6], in [7] and in assay [8] was over 30 µM each time.
For the compound `Cc1ccc(=O)n(-c2ccccc2)c1` [PIRFENIDONE], the AC50 in assay [2], in assay [9], in [3], in assay [4], in [11] and in [5] was over 30 µM in each case. For the same compound, the AC50 in assay [6], in assay [7], in [8] and in assay [10] was over 30 µM each time.
As for `CCN(CC)CC(=O)Oc1ccc(NC(C)=O)cc1` [PROPACETAMOL], the AC50 in [2], in assay [9], in assay [3], in [4], in [11] and in assay [5] was over 30 µM in each case. For the same compound, the AC50 in [6], in assay [7] and in assay [8] was over 30 µM throughout.
Turning to `CCCOC(C(=O)OC1CCN(C)CC1)(c1ccccc1)c1ccccc1` [PROPIVERINE], the AC50 is 9.9 µM in [2]; over 30 µM in assay [9]; over 30 µM in assay [3]; over 30 µM in [4]; over 30 µM in assay [11]; over 30 µM in [5]. Besides, the AC50 is over 30 µM in [6], over 30 µM in assay [7], over 30 µM in assay [8] and 0.75 µM in assay [10].
For `Cc1ccc2c(-c3ccccc3)nc(=O)n(C(C)C)c2c1` [PROQUAZONE], the AC50 in assay [2], in [9], in [3], in assay [4], in [11] and in [5] was over 30 µM each time. In addition, the results for the AC50 in assay [6], in [7] and in assay [8] were over 30 µM, 30 µM and over 30 µM, respectively.
`Cc1cc2nc3c(=O)[nH]c(=O)nc-3n(C[C@H](O)[C@H](O)[C@H](O)COP(=O)(O)O)c2cc1C` [RIBOFLAVIN 5'-PHOSPHATE]: the AC50 in assay [2] was 24 µM; in assay [9] it was over 30 µM; in assay [3] it was over 30 µM; in [4], over 30 µM; in assay [11], 5.1 µM; in [5] it was over 30 µM. Besides, the AC50 in assay [6], in [7] and in [8] was over 30 µM each time.
As to `CN1CCN(c2c(F)cc3c(=O)c(C(=O)O)cn4c3c2SCC4)CC1` [RUFLOXACIN], the AC50 in [2], in assay [9], in [3], in assay [4], in [11] and in assay [5] was over 30 µM each time. In addition, the AC50 in assay [6], in [7] and in assay [8] was over 30 µM in each case.
For the compound `COc1c(O[C@@H]2O[C@H](CO)[C@@H](O)[C@H](O)[C@H]2O)cc2c(c1OC)-c1ccc(SC)c(=O)cc1[C@@H](NC(C)=O)CC2` [THIOCOLCHICOSIDE], the AC50 in assay [2], in [9], in [3], in assay [4], in assay [11] and in assay [5] was over 30 µM each time. Also, the AC50 in assay [6], in assay [7] and in assay [8] was over 30 µM in each case.
On to `CN1c2ccccc2C(NCCCCCCC(=O)O)c2ccc(Cl)cc2S1(=O)=O` (configuration not stated) [TIANEPTINE], for which the AC50 in [2], in [9], in [3], in assay [4], in assay [5] and in [6] was over 30 µM throughout. Further, the figures for the AC50 in assay [7], in [8] and in [10] were 28 µM, over 30 µM and over 30 µM, respectively.
On to `COc1cc2c(Nc3ccc(Br)cc3F)ncnc2cc1OCC1CCN(C)CC1` [VANDETANIB], for which the AC50 in assay [2] was over 30 µM; in assay [9], over 30 µM; in assay [3], over 30 µM; in [4] it was 0.856 µM; in assay [11], 22 µM; in assay [5], over 30 µM. Besides, the figures for the AC50 in assay [6], in assay [7] and in [8] were 9.6 µM, over 30 µM and over 30 µM, respectively.
